Experimental data from the supplement of paper PMC10307832.

Key:
Assay in all cases: relative viability (nuclei count vs DMSO), 5 days (fraction); higher = more cells survive
[1] = compound: CC1=CC=C(C=C1)C(=O)CN2C3=C(CCCC3)SC2=N [Pifithrin_alpha] + O=C(CCCCCCC(=O)Nc1ccccc1)NO [Vorinostat] (partner 1 µM)
Summary of the method: (§1)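 For relative viability, nuclei counts in treated wells were divided by those in vehicle wells. Lung cancer cell lines had been pin-tool dosed in 1536-well plates the day after seeding and cultured for 5 days, then fixed and stained in one step (final 0.05% Triton X-100, 1% formaldehyde, 1 ug/ml Hoechst) and imaged at 4×. Doses were one drug alone or a fixed anchor-drug dose plus five library-drug doses (not always all listed) in √10 steps, and values are duplicate-plate medians.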

[2] = compound: CC1=CC=C(C=C1)C(=O)CN2C3=C(CCCC3)SC2=N [Pifithrin_alpha] + Cc1cc(Nc2cc(N3CCN(C)CC3)nc(Sc3ccc(NC(=O)C4CC4)cc3)n2)n[nH]1 [Tozasertib] (partner 0.1 µM)
Summary of the method: as §1

[3] = compound: Nc1nc(Nc2ccc3c(c2)CC[C@@H](N2CCCC2)CC3)nn1-c1cc2c(nn1)-c1ccccc1CCC2 [Bemcentinib] + N=C(N)NC(=N)NCCc1ccccc1 [Phenformin] (partner 250 µM)
Summary of the method: as §1

[4] = compound: CNC(=O)c1ccccc1Sc1ccc2c(/C=C/c3ccccn3)n[nH]c2c1 [Axitinib] + C[C@]1(O)C[C@@H](c2nc(-c3ccc4ccc(-c5ccccc5)nc4c3)c3c(N)nccn32)C1 [Linsitinib] (partner 1 µM)
Summary of the method: as §1

Cell Line | relative viability ([1]; first compound 1 µM) | relative viability ([1]; first compound 3.162 µM) | relative viability ([1]; first compound 10 µM) | relative viability ([1]; first compound 31.62 µM) | relative viability ([1]; first compound 100 µM) | relative viability ([2]; first compound 1 µM) | relative viability ([2]; first compound 3.162 µM) | relative viability ([2]; first compound 10 µM) | relative viability ([2]; first compound 31.62 µM) | relative viability ([2]; first compound 100 µM) | relative viability ([3]; first compound 0.04 µM) | relative viability ([3]; first compound 0.1265 µM) | relative viability ([3]; first compound 0.4 µM) | relative viability ([3]; first compound 1.265 µM) | relative viability ([3]; first compound 4 µM) | relative viability ([4]; first compound 0.005 µM) | relative viability ([4]; first compound 0.01581 µM) | relative viability ([4]; first compound 0.05 µM) | relative viability ([4]; first compound 0.1581 µM) | relative viability ([4]; first compound 0.5 µM)
201T | 0.529 | 0.948 | 0.757 | 0.666 | 0.711 | 0.991 | 0.679 | 0.729 | 0.57 | 0.638 | 0.417 | 0.504 | 0.48 | 0.454 | 0.455 | 1.08 | 1 | 1.02 | 0.965 | 0.966
A549 | – | – | – | – | – | – | – | – | – | – | 0.126 | 0.124 | 0.17 | 0.121 | 0.147 | 0.606 | 0.606 | 0.595 | 0.529 | 0.573
A-427 | 0.827 | 0.83 | 0.807 | 0.762 | 0.728 | 0.202 | 0.18 | 0.183 | 0.203 | 0.2 | 0.305 | 0.308 | 0.332 | 0.337 | 0.258 | 1.14 | 1.02 | 1.11 | 1.16 | 1.17
ABC-1 | – | 1.25 | 0.844 | 0.622 | 0.765 | 0.204 | 0.167 | 0.188 | 0.229 | 0.173 | 0.191 | 0.267 | 0.23 | 0.253 | 0.239 | 0.972 | 0.947 | 0.745 | 0.759 | 1.22
BEN | 0.448 | 0.564 | 0.617 | 0.555 | 0.571 | – | 0.684 | 0.534 | 0.443 | 0.514 | 0.242 | 0.289 | 0.269 | 0.255 | 0.295 | 1.04 | 1.01 | 0.689 | 0.803 | 0.928
CAL-12T | 0.699 | 0.73 | 0.706 | – | 0.651 | 0.348 | 0.22 | 0.234 | – | 0.226 | 0.492 | 0.632 | 0.611 | 0.579 | 0.601 | 0.873 | 0.903 | 0.748 | 0.911 | 0.712
COR-L23 | 0.42 | 0.349 | 0.361 | – | 0.344 | 0.168 | 0.15 | 0.152 | – | 0.13 | 0.425 | 0.44 | 0.449 | 0.465 | 0.493 | 0.899 | 0.944 | 1.01 | 0.968 | 1.11
COR-L 105 | 0.844 | 0.665 | 0.699 | 0.608 | 0.633 | 0.346 | 0.358 | 0.368 | 0.31 | 0.316 | 0.529 | 0.432 | 0.561 | 0.494 | 0.45 | 1.04 | 0.792 | 0.97 | 1.21 | 1.13
Calu-6 | – | – | – | – | – | – | – | – | – | – | – | – | – | – | – | 1.08 | 0.97 | 1.06 | 1.01 | 1.07
ChaGo-K-1 | 0.574 | 0.836 | 0.788 | 0.524 | 0.771 | 0.218 | 0.219 | 0.204 | 0.226 | 0.192 | 0.486 | 0.544 | 0.517 | 0.473 | 0.442 | – | – | – | – | –
